Format in all cases: cell-based, human
The test system of one data set is MYC. The experiment in a line: doxycycline-inducible shRNA knockdown of NME2, Western blot. Conditions: C4-2B cells, 0-2000 ng/mL doxycycline for 96 hours. On the procedure:
Finally, C4-2B cells expressing doxycycline-inducible shRNA targeting NME2 were generated using the targeting sequence […] (SEQ ID NO: 9). Cells were treated with 0-2000 ng/mL doxycycline for 96 hours and NME2 and MYC expression were evaluated by Western blot.
In general terms: In western blotting, separated proteins are transferred to a membrane and probed.

A further data set deals with LNCaP cells. The experiment in a line: dose-response cell viability assay. The following applies: Enzalutamide-naïve and Enzalutamide-resistant conditions, varying doses, dose-dependent. On the procedure:
(§1) FIGS. 22A and 22B show MYC inhibition reduces viability and colony formation in Enzalutamide resistant conditions. (FIG. 22A) Drug response curves of Enzalutamide naïve LNCaP or Enzalutamide-resistant LNCaP cells treated with Enzalutamide and/or MYC-i975. (FIG. 22B) Colony formation assay using Enzalutamide-resistant LNCaP cells t(LNCaP-Enza-Res) in intact (treated with DMSO), treated with enzalutamide (10 μM), MYC-i975 (2 μM), or a combination of Enzalutamide+MYC-i975 (10 μM+2 μM). Cells were grown in the presence of respective drugs. Bars represent quantification of Crystal Violet trapped by migrated cells. P-value is estimated utilizing one-tailed Welch t-test. * p<0.05, *** p≤0.001.
(§2) Generation of Enzalutamide-resistant cell lines: LNCaP (clone FDG) and C42B cells were purchased from ATCC and were grown in RPMI1640 media (GIBCO # 11875093) supplemented with 10% Fetal Bovine Serum (FBS, Corning Cat#35-011-CV) and maintained at […] in and 5% CO2. Enzalutamide powder was purchased from Sellekchem (cat #S1250) and re-suspended in DMSO. Cells were plated in 6 well plates and treated either with DMSO, or with Enzalutamide (20 uM), refreshed every 4 days for up to 3 months until the resistance emerged. RNA from cells was extracted on indicated days using the methods described below. […]

In data set [1] the test system is C42B-EnzaRes cells. In words: Boyden chamber-based in vitro migration assay. Conditions: for cell migration with NME2 knockdown added: C42B-EnzaRes cells with knockdown of NME2. On the procedure: (§3) FIGS. 21A-21F show MYC targeting is beneficial for patients in Enzalutamide-resistant conditions. (FIG. 21A) Drug sensitivity curves of Enzalutamide-naïve, or Enzalutamide-resistant (EnzaRes) C42B cells treated with MYCi975. (FIG. 21B) Colony formation assay using Enzalutamide-resistant (EnzaRes) C42B cells in Intact (treated with DMSO), treated with Enzalutamide (10 μM), MYCi975 (2 μM), or a combination of Enzalutamide+MYCi975 (10 μM+2 μM). Cells were grown in the presence of respective drugs. Representative images are shown. P-value was estimated using a one-tailed Welch t-test. (FIG. 21C) Boyden chamber-based in vitro migration assay using Enzalutamide-resistant (EnzaRes) C42B cells in Intact (treated with DMSO), treated with Enzalutamide (10 μM), MYCi975 (2 μM), or a combination of Enzalutamide+MYCi975 (10 μM+2 μM). Bars represent the quantification of Crystal Violet trapped by migrated cells. P-value was estimated using a one-tailed Welch t-test. (FIG. 21D) Expression of NME2 in Intact and Enzalutamide-resistant (EnzaRes) C42B cells, using the qRT-PCR. P-value was estimated using the one-tailed Welch t-test. (FIG. 21E) Two different siRNAs targeting NME2 were used to downregulate NME2 (left panel) and its effect on MYC expression using qRT-PCR is shown (right panel). (FIG. 21F) Boyden chamber-based in vitro migration assay using Enzalutamide-resistance (EnzaRes) C42B cells in Intact (treated with DMSO) or treated with a combination of Enzalutamide+MYCi975 (10 μM+2 μM) with or without knockdown of NME2. Bars represent the quantification of Crystal Violet trapped by migrated cells. * p-value<0.05, ** p-value≤0.01, *** p-value≤0.001

Data set [2] has as its system C42B-EnzaRes cells. In words: colony formation assay. The following applies: MYCi975 2 μM, Enzalutamide 10 μM, compared to Intact (DMSO). On the procedure: as §3, with “(FIG. 21E) Two different siRNAs targeting NME2 were used to downregulate NME2 (left panel) and its effect on MYC expression using qRT-PCR is shown (right panel). (FIG. 21F) Boyden chamber-based in vitro migration assay using Enzalutamide-resistance (EnzaRes) C42B cells in Intact (treated with DMSO) or treated with a combination of Enzalutamide+MYCi975 (10 μM+2 μM) with or without knockdown of NME2.” left out, “p-value≤0.001 […]” for “p-value≤0.001”

The next data set relates to C42B cells. In words: dose-response cell viability assay. Conditions: Enzalutamide-naïve and Enzalutamide-resistant conditions, varying doses, dose-dependent. On the procedure: as §3, with “(FIG. 21E) Two different siRNAs targeting NME2 were used to downregulate NME2 (left panel) and its effect on MYC expression using qRT-PCR is shown (right panel). (FIG. 21F) Boyden chamber-based in vitro migration assay using Enzalutamide-resistance (EnzaRes) C42B cells in Intact (treated with DMSO) or treated with a combination of Enzalutamide+MYCi975 (10 μM+2 μM) with or without knockdown of NME2.” left out, “p-value≤0.001 […]” for “p-value≤0.001”

For another data set, the system named is LNCaP-EnzaRes cells. The experiment in a line: colony formation assay. The following applies: MYCi975 2 μM, Enzalutamide 10 μM, compared to Intact (DMSO). On the procedure: as §1, §2

We go through three compounds from patent US20230326554A1, “IDENTIFYING TREATMENT RESPONSE SIGNATURES” (Rutgers, The State University of New Jersey, priority 2022, published 2023).

“shRNA targeting NME2: doxycycline-inducible shRNA targeting NME2, targeting sequence GAAATCAGCCTATGGTTTAAG (SEQ ID NO: 9)”: in the data set with MYC, the MYC expression entry is on record as “suppresses MYC expression”.
Take `Cn1nc(C(F)(F)F)cc1-c1ccc(OCc2ccc(Cl)cc2)c(-c2ccc(Cl)c(C(F)(F)F)c2)c1O` [MYCi975]: the cell viability entry with LNCaP cells and in the data set on C42B cells was “striking reduction of the cell viability” in each case. Besides, in the data set on C42B-EnzaRes cells [1], the “cell migration with NME2 knockdown added” value was “further reduced”. The cell migration entry in the data set with C42B-EnzaRes cells [1] (C42B-EnzaRes cells, MYCi975 2 μM, Enzalutamide 10 μM, compared to Intact (DMSO)) is recorded as “significant reduction in cell migration”. The colony formation result in the data set on C42B-EnzaRes cells [2] and in the data set on LNCaP-EnzaRes cells was “reduced the colony formation” in each case.
Consider `CNC(=O)c1ccc(N2C(=S)N(c3ccc(C#N)c(C(F)(F)F)c3)C(=O)C2(C)C)cc1F` [Enzalutamide], for which the “cell migration with NME2 knockdown added” value with C42B-EnzaRes cells [1] is “low metastatic capability”.
